Assay results as given in patent publication US6806230B1, “Pyrimidine derivatives and herbicides containing them” (Kumiai Chemical Industry Co., Ltd., priority 1999, dated 2004).

The compounds below were run on barnyard grass (Eo) (assay: Test Example 1: herbicidal effects by flooded paddy field treatment). Conditions: dose 100 g active ingredient per 10 ares, examined on the 21st day after treatment, standards of Table 44.
Assay type: in vivo
Design: herbicidal effects, Eo (barnyard grass):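 0-5 growth inhibition grade; 5 = over 90%; 4 = 70-90%; 3 = 50-70%; 2 = 30-50%; 1 = 10-30%; 0 = under 10%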
Procedure, shortened: (§1)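 Flooded paddy pre-emergence test: sowing into puddled soil under 3 cm water, then dropwise water-surface treatment the following day with diluted wettable powder at 100 g active ingredient per 10 ares. Greenhouse cultivation followed, and weeds were rated against a standard scale at 21 days.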
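Wherever Herbicidal effect index, Eo is given: 0-5 growth inhibition grade; 5 = over 90%; 4 = 70-90%; 3 = 50-70%; 2 = 30-50%; 1 = 10-30%; 0 = under 10%.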
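Wherever Herbicidal effect index, Mo is given: 0-5 growth inhibition grade; 5 = over 90%; 4 = 70-90%; 3 = 50-70%; 2 = 30-50%; 1 = 10-30%; 0 = under 10%.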

| SMILES | herbicidal effects, Eo (barnyard grass) |
| --- | --- |
| CCOC(OCC)C(c1cncnc1C(C)C)N(C)C(=O)Cc1ccccc1 (racemic) [1-454] | 5 |
| COc1ccccc1C(c1cncnc1C(F)(F)F)N(C)C(=O)Cc1ccc(Cl)cc1 (racemic) [1-490] | 5 |
| CSC(C)C(c1cncnc1C(F)(F)F)N(C)C(=O)Cc1ccc(F)cc1 (mixture of isomers) [1-416] | 5 |
| CC(=O)c1ncncc1C(C(C)C)N(C)C(=O)Cc1ccc(Cl)cc1 (racemic) [1-528] | 5 |
| COc1ccc(C(c2cncnc2C(F)(F)F)N(C)C(=O)Cc2ccc(Cl)cc2)cc1 (racemic) [1-486] | 5 |
| CN(C(=O)Cc1ccccc1)C(c1ccc(Cl)cc1)c1cncnc1C(F)(F)F (racemic) [1-221] | 5 |
| CCC(c1cncnc1C(C)(C)C)N(C)C(=O)Cc1ccc(F)cc1 (racemic) [1-571] | 5 |
| CON(C(=O)Cc1ccc(Cl)cc1)C(c1cncnc1C(F)(F)F)C(C)C (racemic) [1-407] | 5 |
| CC(C)C(c1cncnc1C(F)(F)F)N(C)C(=O)COc1cc(C(F)(F)F)nn1C (racemic) [2-46] | 5 |
| CN(C(=O)Cc1ccc(F)cc1)C(c1cncnc1C(F)(F)F)C1(C)CC1 (racemic) [1-410] | 5 |
| CC(C)CC(c1cncnc1C(F)(F)F)N(C)C(=O)Cc1cccs1 (racemic) [2-51] | 5 |
| CCC(c1cncnc1C(C)C)N(C)C(=O)Cc1ccc(F)cc1 (racemic) [1-437] | 5 |

Same assay, conditions: dose 100 gai/10a, examined on 21st day after treatment, index 0-5 per Table 44

| SMILES | Herbicidal effect index, Eo |
| --- | --- |
| CCOCN(C(=O)Cc1ccc(C)cc1)C(c1cncnc1C(F)(F)F)C(C)C (racemic) [Compound 1-107] | 5 |

The compounds below were run on monochoria (Mo) in the same assay as above. Conditions: dose 100 g active ingredient per 10 ares, examined on the 21st day after treatment, standards of Table 44.
Assay type: in vivo
Design: herbicidal effects, Mo (monochoria):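 0-5 growth inhibition grade; 5 = over 90%; 4 = 70-90%; 3 = 50-70%; 2 = 30-50%; 1 = 10-30%; 0 = under 10%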
Procedure, shortened: as §1

| SMILES | herbicidal effects, Mo (monochoria) |
| --- | --- |
| CCOC(OCC)C(c1cncnc1C(C)C)N(C)C(=O)Cc1ccccc1 (racemic) [1-454] | 5 |
| COc1ccccc1C(c1cncnc1C(F)(F)F)N(C)C(=O)Cc1ccc(Cl)cc1 (racemic) [1-490] | 5 |
| CSC(C)C(c1cncnc1C(F)(F)F)N(C)C(=O)Cc1ccc(F)cc1 (mixture of isomers) [1-416] | 5 |
| CC(=O)c1ncncc1C(C(C)C)N(C)C(=O)Cc1ccc(Cl)cc1 (racemic) [1-528] | 5 |
| COc1ccc(C(c2cncnc2C(F)(F)F)N(C)C(=O)Cc2ccc(Cl)cc2)cc1 (racemic) [1-486] | 5 |
| CN(C(=O)Cc1ccccc1)C(c1ccc(Cl)cc1)c1cncnc1C(F)(F)F (racemic) [1-221] | 5 |
| CCC(c1cncnc1C(C)(C)C)N(C)C(=O)Cc1ccc(F)cc1 (racemic) [1-571] | 4 |
| CON(C(=O)Cc1ccc(Cl)cc1)C(c1cncnc1C(F)(F)F)C(C)C (racemic) [1-407] | 5 |
| CC(C)C(c1cncnc1C(F)(F)F)N(C)C(=O)COc1cc(C(F)(F)F)nn1C (racemic) [2-46] | 5 |
| CN(C(=O)Cc1ccc(F)cc1)C(c1cncnc1C(F)(F)F)C1(C)CC1 (racemic) [1-410] | 5 |
| CC(C)CC(c1cncnc1C(F)(F)F)N(C)C(=O)Cc1cccs1 (racemic) [2-51] | 5 |
| CCC(c1cncnc1C(C)C)N(C)C(=O)Cc1ccc(F)cc1 (racemic) [1-437] | 5 |

Same assay, conditions: dose 100 gai/10a, examined on 21st day after treatment, index 0-5 per Table 44

| SMILES | Herbicidal effect index, Mo |
| --- | --- |
| CCOCN(C(=O)Cc1ccc(C)cc1)C(c1cncnc1C(F)(F)F)C(C)C (racemic) [Compound 1-107] | 5 |

These compounds were tested on barnyard grass (Ec) (assay: Test Example 2: herbicidal effects by upland soil treatment). Conditions: dose 100 g active ingredient per 10 ares, examined on the 21st day after treatment.
Assay type: in vivo
Design: scale not given here
Procedure, shortened: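 Pre-emergence test: barnyard grass and green foxtail sown in upland soil, then soil surface sprayed with wettable-powder formulation at 100 g active ingredient per 10 ares (100 l per 10 ares). Grown in greenhouse; herbicidal effect scored on a rating scale 21 days after treatment.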

| SMILES | Ec (herbicidal effects, index) |
| --- | --- |
| CCOC(OCC)C(c1cncnc1C(C)C)N(C)C(=O)Cc1ccccc1 (racemic) [1-454] | 4 |
| COc1ccccc1C(c1cncnc1C(F)(F)F)N(C)C(=O)Cc1ccc(Cl)cc1 (racemic) [1-490] | 5 |
| CSC(C)C(c1cncnc1C(F)(F)F)N(C)C(=O)Cc1ccc(F)cc1 (mixture of isomers) [1-416] | 5 |
| CC(=O)c1ncncc1C(C(C)C)N(C)C(=O)Cc1ccc(Cl)cc1 (racemic) [1-528] | 5 |
| CCC(c1cncnc1C(C)(C)C)N(C)C(=O)Cc1ccc(F)cc1 (racemic) [1-571] | 5 |
| CON(C(=O)Cc1ccc(Cl)cc1)C(c1cncnc1C(F)(F)F)C(C)C (racemic) [1-407] | 5 |
| CC(C)C(c1cncnc1C(F)(F)F)N(C)C(=O)COc1cc(C(F)(F)F)nn1C (racemic) [2-46] | 5 |
| CN(C(=O)Cc1ccc(F)cc1)C(c1cncnc1C(F)(F)F)C1(C)CC1 (racemic) [1-410] | 5 |
| CC(C)CC(c1cncnc1C(F)(F)F)N(C)C(=O)Cc1cccs1 (racemic) [2-51] | 5 |
| CCC(c1cncnc1C(C)C)N(C)C(=O)Cc1ccc(F)cc1 (racemic) [1-437] | 5 |

The compounds below were run on barnyard grass (Ec) (assay: Test Example 3: herbicidal effects by foliage treatment in upland field). Conditions: dose 100 g active ingredient per 10 ares, examined on the 14th day after treatment.
Assay type: in vivo
Design: scale not given here
Method: In a 80 cm^2 plastic pot, upland soil was filled, and seeds of barnyard grass (Ec) and green foxtail (Se) were sown and cultured in a green house for 2 weeks. Then, a wettable powder prepared in accordance with Formulation Example 1 was diluted with water and applied to the entire foliage from above the plants by means of a small size spray at a rate of 100 l per 10 ares so that the dose of the active ingredient would be 100 g per 10 ares. Thereafter, cultivation was carried out in a green house, and on the 14th day after the treatment, the herbicidal effects were examined in accordance with the standards of Table 44.

| SMILES | Ec (herbicidal effects, index) |
| --- | --- |
| CCOCN(C(=O)Cc1ccc(C)cc1)C(c1cncnc1C(F)(F)F)C(C)C (racemic) [Compound 1-107] | 4 |
| CCOC(OCC)C(c1cncnc1C(C)C)N(C)C(=O)Cc1ccccc1 (racemic) [1-454] | 4 |
| COc1ccccc1C(c1cncnc1C(F)(F)F)N(C)C(=O)Cc1ccc(Cl)cc1 (racemic) [1-490] | 4 |
| CSC(C)C(c1cncnc1C(F)(F)F)N(C)C(=O)Cc1ccc(F)cc1 (mixture of isomers) [1-416] | 5 |
| CC(=O)c1ncncc1C(C(C)C)N(C)C(=O)Cc1ccc(Cl)cc1 (racemic) [1-528] | 4 |
| COc1ccc(C(c2cncnc2C(F)(F)F)N(C)C(=O)Cc2ccc(Cl)cc2)cc1 (racemic) [1-486] | 4 |
| CN(C(=O)Cc1ccccc1)C(c1ccc(Cl)cc1)c1cncnc1C(F)(F)F (racemic) [1-221] | 4 |
| CCC(c1cncnc1C(C)(C)C)N(C)C(=O)Cc1ccc(F)cc1 (racemic) [1-571] | 4 |
| CON(C(=O)Cc1ccc(Cl)cc1)C(c1cncnc1C(F)(F)F)C(C)C (racemic) [1-407] | 4 |
| CC(C)C(c1cncnc1C(F)(F)F)N(C)C(=O)COc1cc(C(F)(F)F)nn1C (racemic) [2-46] | 4 |
| CN(C(=O)Cc1ccc(F)cc1)C(c1cncnc1C(F)(F)F)C1(C)CC1 (racemic) [1-410] | 4 |
| CC(C)CC(c1cncnc1C(F)(F)F)N(C)C(=O)Cc1cccs1 (racemic) [2-51] | 4 |
| CCC(c1cncnc1C(C)C)N(C)C(=O)Cc1ccc(F)cc1 (racemic) [1-437] | 4 |

What follows are compounds tested on barnyard grass (Eo) (assay: Test Example 4: selectivity for a crop plant by flooded paddy field treatment). Conditions: barnyard grass, dose 25 gai/10a, 21st day after treatment, index per Table 44.
Assay type: in vivo
Design: scale not given here
Procedure, shortened: (§2)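 Steps: fill pot with paddy soil and puddle; sow weed seeds; transplant rice at second-leaf stage; flood to 3 cm. Next day, drip the water-diluted wettable powder onto the water (25 g a.i./10 ares). Grow in greenhouse and rate herbicidal effect on day 21.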

| SMILES | Eo (herbicidal effect index) |
| --- | --- |
| CCOCN(C(=O)Cc1ccc(C)cc1)C(c1cncnc1C(F)(F)F)C(C)C (racemic) [Compound 1-107] | 5 |
| CCOC(OCC)C(c1cncnc1C(C)C)N(C)C(=O)Cc1ccccc1 (racemic) [1-454] | 5 |
| COc1ccccc1C(c1cncnc1C(F)(F)F)N(C)C(=O)Cc1ccc(Cl)cc1 (racemic) [1-490] | 5 |
| CSC(C)C(c1cncnc1C(F)(F)F)N(C)C(=O)Cc1ccc(F)cc1 (mixture of isomers) [1-416] | 5 |
| CC(=O)c1ncncc1C(C(C)C)N(C)C(=O)Cc1ccc(Cl)cc1 (racemic) [1-528] | 5 |
| COc1ccc(C(c2cncnc2C(F)(F)F)N(C)C(=O)Cc2ccc(Cl)cc2)cc1 (racemic) [1-486] | 5 |
| CN(C(=O)Cc1ccccc1)C(c1ccc(Cl)cc1)c1cncnc1C(F)(F)F (racemic) [1-221] | 5 |

The compounds below were run on monochoria (Mo) in the same assay as above. Conditions: monochoria, dose 25 gai/10a, 21st day after treatment, index per Table 44.
Assay type: in vivo
Design: scale not given here
Procedure, shortened: as §2

| SMILES | Mo (herbicidal effect index) |
| --- | --- |
| CCOCN(C(=O)Cc1ccc(C)cc1)C(c1cncnc1C(F)(F)F)C(C)C (racemic) [Compound 1-107] | 5 |
| CCOC(OCC)C(c1cncnc1C(C)C)N(C)C(=O)Cc1ccccc1 (racemic) [1-454] | 5 |
| COc1ccccc1C(c1cncnc1C(F)(F)F)N(C)C(=O)Cc1ccc(Cl)cc1 (racemic) [1-490] | 5 |
| CSC(C)C(c1cncnc1C(F)(F)F)N(C)C(=O)Cc1ccc(F)cc1 (mixture of isomers) [1-416] | 5 |
| CC(=O)c1ncncc1C(C(C)C)N(C)C(=O)Cc1ccc(Cl)cc1 (racemic) [1-528] | 5 |
| COc1ccc(C(c2cncnc2C(F)(F)F)N(C)C(=O)Cc2ccc(Cl)cc2)cc1 (racemic) [1-486] | 5 |
| CN(C(=O)Cc1ccccc1)C(c1ccc(Cl)cc1)c1cncnc1C(F)(F)F (racemic) [1-221] | 5 |

Each compound was assayed on rice (Or) in the same assay as above. Conditions: rice transplanted at second leaf stage, dose 25 gai/10a, 21st day after treatment, index per Table 44.
Assay type: in vivo
Design: scale not given here
Procedure, shortened: as §2

| SMILES | Or (herbicidal effect index on crop) |
| --- | --- |
| CCOCN(C(=O)Cc1ccc(C)cc1)C(c1cncnc1C(F)(F)F)C(C)C (racemic) [Compound 1-107] | 0 |
| CCOC(OCC)C(c1cncnc1C(C)C)N(C)C(=O)Cc1ccccc1 (racemic) [1-454] | 1 |
| COc1ccccc1C(c1cncnc1C(F)(F)F)N(C)C(=O)Cc1ccc(Cl)cc1 (racemic) [1-490] | 0 |
| CSC(C)C(c1cncnc1C(F)(F)F)N(C)C(=O)Cc1ccc(F)cc1 (mixture of isomers) [1-416] | 1 |
| CC(=O)c1ncncc1C(C(C)C)N(C)C(=O)Cc1ccc(Cl)cc1 (racemic) [1-528] | 1 |
| COc1ccc(C(c2cncnc2C(F)(F)F)N(C)C(=O)Cc2ccc(Cl)cc2)cc1 (racemic) [1-486] | 1 |
| CN(C(=O)Cc1ccccc1)C(c1ccc(Cl)cc1)c1cncnc1C(F)(F)F (racemic) [1-221] | 1 |
